# Measured values as given in publication PMC10298530, “Synthesis and Anticancer Activity of A-Ring-Modified Derivatives of Dihydrobetulin” (International Journal of Molecular Sciences, 2023).
# Where two headings read alike, the source gives them in different places.
# What was measured:
# [1] = test system: HBL-100; experiment: MTT cell viability assay, HBL-100; type: cell-based, human; details: for IC50: Homo sapiens; for Selectivity index (SI): ratio of IC50 values healthy (HEK293) / HBL-100
# Method: (§1) The cells were cultured in a humidified CO2 incubator (model 460-CE; Thermo Fisher Scientific, Waltham, MA, USA) at +37 °C and 5% CO2.
# (§2) The percentage of the viable cells was calculated according to the following equation: cell viability (%) = 100 × (mean absorbance in the treatment group/mean absorbance in the control group). The results were expressed pictorially using Prism 6.0 (GraphPad Software, Boston, MA, USA).
# [2] = test system: RD TE32; experiment: MTT cell viability assay, RD TE32; type: cell-based, human; details: for IC50: Homo sapiens; for Selectivity index (SI): ratio of IC50 values healthy (HEK293) / RD TE32
# Description: (§3) Blokhin National Medical Research Center of Oncology (the Ministry of Health of the Russian Federation, Moscow).
# [3] = test system: MS; experiment: MTT cell viability assay, MS; type: cell-based, human; details: for IC50: Homo sapiens; for Selectivity index (SI): ratio of IC50 values healthy (HEK293) / MS;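 on IC50 (mean ± SD): MS is a melanocyte cell line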
# Description: as §3
# [4] = test system: HEK293; experiment: MTT cell viability assay, HEK293; type: cell-based; details: Homo sapiens
# Description: as §3
# [5] = test system: human cancer cell lines; experiment: MTT assay, panel of cancer cell lines; details: for IC50: Homo sapiens; for cytotoxicity in the screening studies: MTT screening, Table S1
# Method: In this study, the human embryonic kidney cell line HEK293 was used as the non-cancerous cell line.
# To investigate the cytotoxic activity of the compounds under study, the MTT colorimetric assay [45] was performed. […] After 72 h, 20 μL of 5 mg/mL solution of MTT (PanEco, Moscow, Russia), in sterile phosphate-buffered saline (PBS; PanEco, Moscow, Russia), was added to each well and further incubated for 4 h. Then, the medium with the compounds was removed, and the formed formazan crystals were dissolved in 100 μL of DMSO. […] The IC50 values were determined from dose-dependent curves, using Prism 6.0 (GraphPad Software, Boston, MA, USA).
# [6] = test system: HEpG2; experiment: MTT cell viability assay, HEpG2; type: cell-based, human; details: for IC50: Homo sapiens, HEpG2, MTT, 72 h of treatment, read-out: IC50 Values (Mean ± SD); for Selectivity index (SI): ratio of IC50 values healthy (HEK293) / HEpG2
# Description: as §3
# [7] = test system: A549; experiment: MTT cell viability assay, A549; type: cell-based, human; details: for IC50: Homo sapiens; for Selectivity index (SI): ratio of IC50 values healthy (HEK293) / A549
# Description: as §3
# [8] = test system: MCF-7; experiment: MTT cell viability assay, MCF-7; type: cell-based, human; details: for IC50: Homo sapiens, MCF7; for Selectivity index (SI): ratio of IC50 values healthy (HEK293) / MCF-7
# Description: as §3
# [9] = test system: HCT116; experiment: MTT cell viability assay, HCT116; type: cell-based, human; details: for IC50: Homo sapiens, HCT-116; for Selectivity index (SI): ratio of IC50 values healthy (HEK293) / HCT116
# Description: as §3
# [10] = test system: PC-3; experiment: MTT cell viability assay, PC-3; type: cell-based, human; details: for IC50: Homo sapiens; for Selectivity index (SI): ratio of IC50 values healthy (HEK293) / PC-3
# Description: as §3
# [11] = test system: HBL-100/Dox; experiment: MTT cell viability assay, HBL-100/Dox; type: cell-based, human; details: for IC50: Homo sapiens; for Selectivity index (SI): ratio of IC50 values healthy (HEK293) / HBL-100/Dox
# Method: as §1, §2
# [12] = HBL-100, MTT, 72 h of treatment, read-out: IC50 Values (Mean ± SD)
# [13] = Table S1, HBL-100, read-out: IC50 (mean ± SD)
# [14] = RD TE32, MTT, 72 h of treatment, read-out: IC50 Values (Mean ± SD)
# [15] = MS, MTT, 72 h of treatment, read-out: IC50 Values (Mean ± SD)
# [16] = HEK293, MTT, 72 h of treatment, read-out: IC50 Values (Mean ± SD)
# [17] = Table S1, HEK293, read-out: IC50 (mean ± SD)
# [18] = read-out: moderate activity (range)
# [19] = A549, MTT, 72 h of treatment, read-out: IC50 Values (Mean ± SD)
# [20] = Table S1, A549, read-out: IC50 (mean ± SD)
# [21] = MCF-7, MTT, 72 h of treatment, read-out: IC50 Values (Mean ± SD)
# [22] = Table S1, MCF-7, read-out: IC50 (mean ± SD)
# [23] = HCT116, MTT, 72 h of treatment, read-out: IC50 Values (Mean ± SD)
# [24] = PC-3, MTT, 72 h of treatment, read-out: IC50 Values (Mean ± SD)
# [25] = Table S1, PC-3, read-out: IC50 (mean ± SD)
# [26] = HBL-100, 72 h, read-out: IC50 Values (Mean ± SD)
# [27] = HBL-100, read-out: IC50 (mean ± SD)
# [28] = Table S1, RD TE32, read-out: IC50 (mean ± SD)
Structure (SMILES),"IC50 [1, 12] [µM]","IC50 [1, 13] [µM]",Selectivity index (SI) [1],"IC50 [2, 14] [µM]",Selectivity index (SI) [2],"IC50 [3, 15] [µM]",Selectivity index (SI) [3],"IC50 [4, 16] [µM]","IC50 [4, 17] [µM]",melting point [°C],cytotoxicity in the screening studies [5],IC50 [6] [µM],Selectivity index (SI) [6],"IC50 [7, 19] [µM]","IC50 [7, 20] [µM]",Selectivity index (SI) [7],"IC50 [8, 21] [µM]",Selectivity index (SI) [8],"IC50 [9, 23] [µM]",Selectivity index (SI) [9],also measured
"CC(C)C1CC[C@]2(CO)CC[C@]3(C)C(CCC4[C@@]5(C)CC(C#N)=CC(=O)C5CC[C@]43C)C12 (stereo partly drawn) [compound 14, 2-Cyano-28-hydroxy-4-oxo-3,4-seco-3,23-dinor-2,24-cyclolup-2(24)-ene]",46.9 ± 2.2,46.9 ± 2.22,1.66,49.1 ± 1.4,1.58,69.1 ± 1,1.13,77.8 ± 2.9,77.8 ± 2.9,121,relatively weak or moderate cytotoxicity,> 100,< 0.78,63.2 ± 1.4,63.2 ± 1.42,1.23,56.7 ± 3.7,1.37,49.9 ± 0.1,1.56,"IC50 [5, 18]: 16 to 77.8 µM; IC50 [8, 22]: 56.7 ± 3.72 µM; IC50 [10, 24]: 28.3 ± 2.3 µM; IC50 [10, 25]: 28.3 ± 2.29 µM; Selectivity index (SI) [10]: 2.75; IC50 [11, 26]: 54 ± 1.8 µM; IC50 [11, 27]: 54 ± 1.82 µM; Selectivity index (SI) [11]: 1.44"
"COC(=O)[C@]12CCC(C(C)C)C1C1CCC3[C@@](C)(CCC#N)C(C(=O)CBr)CC[C@@]3(C)[C@]1(C)CC2 (stereo partly drawn) [compound 30, 24-Bromo-2-cyano-4-oxo-3,4-seco-3,23-dinorlupan-28-oic acid methyl ester]",3.6 ± 0.3,3.62 ± 0.33,6.72,7.1 ± 0.9,3.41,45.9 ± 2.2,0.53,24.2 ± 0.5,24.2 ± 0.45,124.4,relatively weak or moderate cytotoxicity,49.6 ± 0.5,0.49,27.7 ± 0.3,27.7 ± 0.31,0.87,12 ± 0.1,2.02,13.5 ± 0.3,1.79,"IC50 [2, 28]: 7.05 ± 0.91 µM; IC50 ([3]; Table S1, MS, read-out: IC50 (mean ± SD)): 46 ± 2.2 µM; IC50 ([5]; read-out: cytotoxic values (range)): 3.6 to 13.5 µM; IC50 [8, 22]: 12.04 ± 0.06 µM; IC50 [10, 24]: 34 ± 1.3 µM; IC50 [10, 25]: 34.1 ± 1.28 µM; Selectivity index (SI) [10]: 0.71; IC50 [11, 26]: 4.5 ± 0.2 µM; IC50 [11, 27]: 4.53 ± 0.21 µM; Selectivity index (SI) [11]: 5.37"
"COC(=O)[C@]12CCC(C(C)C)C1C1CCC3[C@@]4(C)C[C@@H](C#N)C[C@H](O)C4CC[C@@]3(C)[C@]1(C)CC2 (stereo partly drawn) [compound 19, 2-Cyano-4β-hydroxy-3,4-seco-3,23-dinor-2,24-cyclolup-28-oic acid methyl ester]",16 ± 0.9,16 ± 0.94,2.16,25.2 ± 0.1,1.37,22.2 ± 2,1.56,34.6 ± 1.1,34.6 ± 1.09,189.7,relatively weak or moderate cytotoxicity,31.8 ± 2.7,1.09,25.9 ± 1.8,25.9 ± 1.75,1.34,47.9 ± 0.3,0.72,28.2 ± 2.1,1.23,"IC50 [2, 28]: 25.17 ± 0.11 µM; IC50 [5, 18]: 16 to 77.8 µM; IC50 ([9]; Table S1, HCT116, read-out: IC50 (mean ± SD)): 28.2 ± 2.06 µM; IC50 [10, 24]: 17.2 ± 0.7 µM; IC50 [10, 25]: 17.2 ± 0.69 µM; Selectivity index (SI) [10]: 2.01; IC50 [11, 26]: 21.1 ± 2.2 µM; IC50 [11, 27]: 21.1 ± 2.23 µM; Selectivity index (SI) [11]: 1.64"
